Source: patent publication US6476021B1 (priority 1997, dated 2002)
Where a name gives a salt, the structure may show the parent alone.

Key:
[1] = rat, in vivo, 100 mg/kg
PDE type V = PDE type V (Canis lupus familiaris, UniProt O77746); experiment: biochemical
PDE type VI = PDE type VI (Bos taurus, UniProt P11541+P23439); experiment: biochemical
[2] = intranasal administration
[3] = rats
From the text: (§1) Eight-week-old male Wistar rats were anesthetized with intraperitoneal injection of urethane at 1 g/kg. The cervical portion was incised so that the trachea was exposed, and a polyethylene tube (SP120, Natsume) was inserted into the trachea. Then, a part of the esophagus was incised and a polyethylene tube with the same diameter was inserted into postnasal cavity, the tip was closed with absorbent cotton and glue. Leak of the drug solution from the nasoplatine was avoided by closing it with synthetic glue. Drugs were dissolved in 0.1% tartaric acid solution and administered through the nostrils at 500 μl/kg with micropipette and the nostrils were rapidly closed with glue. For the control, drugs were intravenously administered to rats. Constant volume of blood was intermittently collected from the tail vein into heparinized capillary after administration, and plasma was separated by centrifugation. Constant volume of plasma was extracted with t-butyl-methyl-ether three times and the organic phase was evaporated and dissolved in the HPLC initial phase. Constant volume of the organic phase was applied to the HPLC system equipped with an ultraviolet detector, and plasma drug concentration was determined with the reverse phase column. The time to reach the maximal concentration (Tmax), the mean residence time (MRT) and the mean absorption time (MAT) were calculated from measured values.

in vivo = settings: male, Wistar, rat, plasma, inhaled or intranasal, 0.3 mg/kg
From the text: as §1

PDE type III = PDE type III (Canis lupus familiaris, UniProt A0A8I3NYE0); settings: read-out: Inhibition Activity IC50 Type III; PDE type III from canine aorta; 1 μM substrate
PDE type III, sequence (A0A8I3NYE0 1-1135): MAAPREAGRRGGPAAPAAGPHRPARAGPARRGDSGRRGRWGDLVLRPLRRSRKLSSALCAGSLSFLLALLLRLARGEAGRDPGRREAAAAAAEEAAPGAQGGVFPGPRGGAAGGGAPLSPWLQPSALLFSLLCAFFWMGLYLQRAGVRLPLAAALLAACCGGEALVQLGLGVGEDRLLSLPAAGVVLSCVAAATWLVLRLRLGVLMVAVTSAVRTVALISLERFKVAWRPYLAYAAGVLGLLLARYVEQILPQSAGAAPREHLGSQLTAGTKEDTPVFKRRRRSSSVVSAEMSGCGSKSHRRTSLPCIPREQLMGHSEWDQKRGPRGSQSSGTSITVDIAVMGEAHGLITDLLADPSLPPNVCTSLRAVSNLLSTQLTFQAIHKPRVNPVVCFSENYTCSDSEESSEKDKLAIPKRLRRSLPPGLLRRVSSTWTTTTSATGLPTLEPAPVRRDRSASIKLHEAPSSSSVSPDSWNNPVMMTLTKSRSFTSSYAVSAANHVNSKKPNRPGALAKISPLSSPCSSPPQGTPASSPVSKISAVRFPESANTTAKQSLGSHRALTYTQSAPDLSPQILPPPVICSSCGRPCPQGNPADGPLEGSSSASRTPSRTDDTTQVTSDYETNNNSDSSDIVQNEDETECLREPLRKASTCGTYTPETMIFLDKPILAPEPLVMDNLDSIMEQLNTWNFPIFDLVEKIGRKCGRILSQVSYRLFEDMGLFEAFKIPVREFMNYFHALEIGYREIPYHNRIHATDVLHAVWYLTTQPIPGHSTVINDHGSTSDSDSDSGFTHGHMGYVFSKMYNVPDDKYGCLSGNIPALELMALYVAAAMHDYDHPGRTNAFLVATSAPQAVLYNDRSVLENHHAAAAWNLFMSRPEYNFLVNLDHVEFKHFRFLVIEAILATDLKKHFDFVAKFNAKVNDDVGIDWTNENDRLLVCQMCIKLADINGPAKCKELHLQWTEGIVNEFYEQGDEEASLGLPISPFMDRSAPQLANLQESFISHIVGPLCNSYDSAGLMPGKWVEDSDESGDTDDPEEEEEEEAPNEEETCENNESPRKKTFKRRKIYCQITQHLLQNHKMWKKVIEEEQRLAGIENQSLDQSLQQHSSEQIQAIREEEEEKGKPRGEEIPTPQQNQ

PDE type VI, sequence (P11541 2-856): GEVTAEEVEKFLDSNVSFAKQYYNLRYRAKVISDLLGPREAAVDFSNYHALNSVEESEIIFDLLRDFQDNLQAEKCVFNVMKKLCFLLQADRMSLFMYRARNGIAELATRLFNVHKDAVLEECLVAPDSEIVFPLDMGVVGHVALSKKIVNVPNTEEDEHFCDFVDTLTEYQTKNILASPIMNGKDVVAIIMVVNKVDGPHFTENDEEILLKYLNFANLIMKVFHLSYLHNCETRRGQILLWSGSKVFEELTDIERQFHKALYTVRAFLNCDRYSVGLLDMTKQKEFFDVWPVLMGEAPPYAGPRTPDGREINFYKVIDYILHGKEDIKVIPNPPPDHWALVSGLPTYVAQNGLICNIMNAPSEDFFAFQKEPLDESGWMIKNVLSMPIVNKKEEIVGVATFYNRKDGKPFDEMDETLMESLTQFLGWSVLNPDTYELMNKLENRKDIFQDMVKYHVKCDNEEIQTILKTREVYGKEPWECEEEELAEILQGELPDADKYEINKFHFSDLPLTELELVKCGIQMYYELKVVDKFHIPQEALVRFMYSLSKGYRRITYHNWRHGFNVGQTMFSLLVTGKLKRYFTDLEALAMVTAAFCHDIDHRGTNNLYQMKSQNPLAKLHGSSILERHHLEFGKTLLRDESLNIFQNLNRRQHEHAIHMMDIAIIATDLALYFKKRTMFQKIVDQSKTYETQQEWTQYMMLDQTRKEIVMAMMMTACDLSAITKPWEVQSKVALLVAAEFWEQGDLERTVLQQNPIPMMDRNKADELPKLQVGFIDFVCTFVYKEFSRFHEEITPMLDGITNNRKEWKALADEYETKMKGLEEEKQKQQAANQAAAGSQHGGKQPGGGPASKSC
PDE type VI, sequence (P23439 2-850): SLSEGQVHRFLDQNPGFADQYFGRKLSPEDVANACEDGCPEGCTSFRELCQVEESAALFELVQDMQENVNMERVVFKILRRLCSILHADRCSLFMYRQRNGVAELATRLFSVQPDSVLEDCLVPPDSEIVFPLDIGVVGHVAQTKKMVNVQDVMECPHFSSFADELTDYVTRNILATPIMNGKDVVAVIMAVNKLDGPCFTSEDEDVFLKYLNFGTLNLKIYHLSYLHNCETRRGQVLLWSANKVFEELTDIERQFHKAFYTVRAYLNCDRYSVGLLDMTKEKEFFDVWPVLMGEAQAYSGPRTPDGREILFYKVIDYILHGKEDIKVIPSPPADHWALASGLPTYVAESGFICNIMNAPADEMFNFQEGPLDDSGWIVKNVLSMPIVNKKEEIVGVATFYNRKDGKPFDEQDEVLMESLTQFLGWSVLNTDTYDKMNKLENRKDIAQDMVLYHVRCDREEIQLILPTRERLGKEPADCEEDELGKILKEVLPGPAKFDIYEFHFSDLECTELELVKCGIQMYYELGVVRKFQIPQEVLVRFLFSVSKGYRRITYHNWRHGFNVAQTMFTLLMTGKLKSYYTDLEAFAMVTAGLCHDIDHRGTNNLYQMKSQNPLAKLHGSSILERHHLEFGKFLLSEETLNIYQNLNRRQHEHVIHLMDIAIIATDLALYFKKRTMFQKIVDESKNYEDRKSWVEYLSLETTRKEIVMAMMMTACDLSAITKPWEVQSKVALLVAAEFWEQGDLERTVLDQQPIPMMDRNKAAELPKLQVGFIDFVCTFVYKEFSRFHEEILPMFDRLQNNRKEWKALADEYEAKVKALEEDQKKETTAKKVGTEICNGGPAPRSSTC

melting point | SMILES | also measured
275 °C (dec.) | CC(=O)N1c2ccccc2-n2ccc(=O)c3cccc1c32 | 
232.8 to 234.5 °C | CN1c2ccccc2-n2ccc(=O)c3cccc1c32 | 
280 °C (dec.) | O=c1ccn2c3ccc(Cl)cc3c3cncc1c32 | 
> 300 °C | O=c1ccn2c3c(cc(Cl)cc13)Oc1cc(Cl)ccc1-2 | 
211.3 °C (dec.) | O=c1ccn2c3cnccc3c3cccc1c32 | 
277.1 to 280.3 °C | COc1cc2c3c(c1)c(=O)c(Cc1cccnc1)cn3-c1cc(Br)ccc1O2 | 
247.5 to 251.1 °C | COc1cc2c(=O)c(Cc3cccnc3)cn3c4cc(Br)ccc4c(=O)c(c1)c23 | 
> 300 °C | O=c1c(Cc2cccnc2)cn2c3cc(Br)ccc3c(=O)c3cc(O)cc1c32 | 
185.7 to 187.4 °C | COc1cc2c3c(c1)c(=O)c(Cc1cccnc1)cn3-c1cc(Br)ccc1S2 | 
297.4 °C (dec.) | O=c1c(Cc2cccnc2)cn2c3c(cc(O)cc13)Sc1ccc(Br)cc1-2 | 
189.1 to 191.3 °C | O=c1c(Cc2cccnc2)cn2c3c(cc(OCCCO)cc13)Sc1ccc(Br)cc1-2 | 
160.3 to 163.3 °C | CN(C)CCCOc1cc2c3c(c1)c(=O)c(Cc1cccnc1)cn3-c1cc(Br)ccc1S2 | 
137.3 to 138.1 °C | COc1cc2c3c(c1)c(=O)c(Cc1cccnc1)cn3-c1ccc(Br)cc1S2 | 
215.7 to 218.4 °C | O=c1c(Cc2cccnc2)cn2c3c(cc(OCCCO)cc13)Sc1cc(Br)ccc1-2 | 
231.7 to 233.7 °C | COc1cc2c3c(c1)c(=O)c(C)cn3-c1cc(Br)ccc1S2 | 
> 300 °C | Cc1cn2c3c(cc(O)cc3c1=O)Sc1ccc(Br)cc1-2 | 

melting point | SMILES | also measured
188.9 to 197.8 °C | Cc1cn2c3c(cc(OCCCO)cc3c1=O)Sc1ccc(Br)cc1-2 | 
218.1 to 219.3 °C | COc1cc2c3c(c1)c(=O)c(Cc1ccccc1)cn3-c1cc(Br)ccc1S2 | 
> 300 °C | O=c1ccn2c3c(cc(Cl)cc13)Sc1cc(Cl)ccc1-2 | 
268.1 to 274.3 °C | O=c1c(Cc2ccccc2)cn2c3c(cc(O)cc13)Sc1ccc(Br)cc1-2 | 
152 to 168.3 °C | O=c1c(Cc2ccccc2)cn2c3c(cc(OCCCO)cc13)Sc1ccc(Br)cc1-2 | 
206.6 to 210.7 °C | COc1cc2c3c(c1)c(=O)c(Cc1cncnc1)cn3-c1cc(Br)ccc1S2 | 
 | O=c1c(Cc2cccnc2)cn2c3c(cccc13)Oc1ccccc1-2 [Example 4, 2-(3-pyridylmethyl)-3H-pyrido[3,2,1-kl]phenoxazin-3-one] | body weights and general symptoms [1]: nothing abnormal; death of animals until the next day after the end of administration [1]: none of the animals were found to be dead
 | CC(=O)N1c2ccccc2-n2cc(Cc3ccccc3)c(=O)c3cccc1c32 [Example 10, 7-acetyl-2-benzyl-3H,7H-pyrido[3,2,1-de]phenazin-3-one] | body weights and general symptoms [1]: nothing abnormal; death of animals until the next day after the end of administration [1]: none of the animals were found to be dead
 | O=c1ccn2c3c(cccc13)Nc1ccccc1-2 [Example 14, 3H,7H-pyrido[3,2,1-depphenazin-3-one] | body weights and general symptoms [1]: nothing abnormal; death of animals until the next day after the end of administration [1]: none of the animals were found to be dead
 | O=c1c(Cc2cccnc2)cn2c3ccccc3c(=O)c3cccc1c32 [Example 18, 2-(3-pyridylmethyl)-3H,7H-pyrido[3,2,1-de]acridin-3,7-dione] | body weights and general symptoms [1]: nothing abnormal; death of animals until the next day after the end of administration [1]: none of the animals were found to be dead
165 °C (dec.) | O=c1c(Cc2cccnc2)cn2c3cc(Br)ccc3c(=O)c3cc(OCCCO)cc1c32 [Example 34, 10-bromo-5-(3-hydroxypropyloxy)-2-(3-pyridylmethyl)-3H,7H-pyrido[3,2,1-de]acridin-3,7-dione] | 
94.6 to 96.4 °C | O=c1c(Cc2cccnc2)cn2c3c(cc(OCc4ccccn4)cc13)Sc1ccc(Br)cc1-2 [Example 44, 10-bromo-2-(3-pyridylmethyl)-5-(2-pyridylmethyloxy)-3H-pyrido[3,2,1-kl]phenothiazin-3-one] | 
166.5 to 169 °C | O=c1c(Cc2cccnc2)cn2c3c(cc(OCCN4CCCCC4)cc13)Sc1ccc(Br)cc1-2 [Example 50] | 
 | CC(C)N(CCOc1cc2c3c(c1)c(=O)c(Cc1cccnc1)cn3-c1cc(Br)ccc1S2)C(C)C [Example 51] | IC50 (PDE type V): 11 nM; IC50 (PDE type VI): 180 nM
 | CCCc1nn(C)c2c(=O)[nH]c(-c3cc(S(=O)(=O)N4CCN(C)CC4)ccc3OCC)nc12 [Sildenafil, 5-[2-ethoxy-5-(4-methylpiperazin-1-ylsulphonyl)phenyl]-1-methyl-3-propyl-6,7-dihydro-1H-pyrazolo[4,3-d]pyrimidin-7-one citrate] | IC50 (PDE type III): 13000 nM

SMILES | melting point | also measured
O=c1c(Cc2cccnc2)cn2c3cc(Br)ccc3c(=O)c3cc(OCc4cccnc4)cc1c32 [Example 35, 10-bromo-2-(3-pyridylmethyl)-5-(3-pyridylmethyloxy)-3H,7H-pyrido[3,2,1-de]acridin-3,7-dione] | 262.4 to 264.6 °C | IC50 (PDE type V): 1.8 nM; IC50 (PDE type VI): 15 nM
O=c1c(Cc2cccnc2)cn2c3c(cc(OCc4cccnc4)cc13)Sc1ccc(Br)cc1-2 [Example 39, 10-bromo-2-(3-pyridylmethyl)-5-(3-pyridylmethyloxy)-3H-pyrido[3,2,1-kl]phenothiazin-3-one] | 170.8 to 172.1 °C | abnormalities in nasal mucosa during the experimental period [2]: no abnormalities; irritativeness from the observation at drug administration [2]: no irritativeness; IC50 (PDE type V): 3.8 nM; IC50 (PDE type VI): 61 nM
O=c1c(Cc2cccnc2)cn2c3c(cc(OCc4ccncc4)cc13)Sc1ccc(Br)cc1-2 [Example 43, 10-bromo-2-(3-pyridylmethyl)-5-(4-pyridylmethyloxy)-3H-pyrido[3,2,1-kl]phenothiazin-3-one] | 194.2 to 196.1 °C | IC50 (PDE type V): 2.8 nM; IC50 (PDE type VI): 36 nM
CS(=O)(=O)O.CS(=O)(=O)O.O=c1c(Cc2cccnc2)cn2c3c(cc(OCc4cccnc4)cc13)Sc1ccc(Br)cc1-2 [Example 81, 10-bromo-2-(3-pyridylmethyl)-5-(3-pyridylmethyloxy)-3H-pyrido[3,2,1-kl]phenothiazin-3-one dimethanesulfonate] | 238.7 to 242.3 °C | absorption by intranasal administration [3]: rapid and effective absorption; Tmax and MRT in comparison with oral administration ([3]; intranasal administration): shortened; duration ([3]; intranasal administration): proper duration; first-pass effect ([3]; intranasal administration): no first-pass effect; MAT ([3]; intranasal administration, dose 0.3 mg/kg): 0.2 ˜ 0.3 hr; MRT (in vivo): 48 to 60 min; Tmax (in vivo): 12 to 30 min
